Patent publication US20060014734A1, “Immediate release pharmaceutical formulation” (priority 2002, published 2006)

What was measured:
[1] = Solubility of esylate salt: final concentration of the solution after filtration; assay type: physicochemical
Experimental: A solution was prepared by dissolving excess of Compound A as esylate salt in 3 mL water followed by gently stirring over night. A final concentration of the solution after filtration was monitored to 14 mg/ml at a pH of 2.7.
A solution was prepared by dissolving 112 mg of Compound A as esylate salt in 3 mL sodium phosphate buffer followed by gently stirring over night. A final concentration of the solution after filtration was monitored to 33 mg/ml at a pH of 2.7.
A solution was prepared by dissolving 20 mg of Compound A as esylate salt in 3 mL sodium phosphate buffer followed by gently stirring over night. A final concentration of the solution after filtration was monitored to 1.6 mg/ml at a pH of 6.5.

pH of the formulation = assay type: physicochemical
Experimental: A formulation was prepared by dissolving Compound A in acidified PEG 400/ethanol/water 20/10/70 (w/w) % that was followed by gently stirring. The pH of this solution was 3.6. The solubility of Compound A is at least 250 times higher in this vehicle compared to water alone.
A formulation was prepared by dissolving Compound E in 9 mg/ml NaCl by gently stirring. The pH obtained in this formulation is 8-9.
A formulation was prepared by dissolving Compound F in 9 mg/ml NaCl by gently stirring. The pH obtained in this formulation is 3-4. Formulations of F in this vehicle are stable for at least 2 weeks at room temperature and below.

[2] = Nanoparticle preparation: particle size and its stability; assay type: physicochemical; settings: for nanoparticle size: about 100 mM ethanol stock with 25% (w/w) Miglyol, diluted 1/10 in 0.2% PVP and 0.25 mM SDS in water, ultrasonication; for particle sizes after 6 hours at room temperature: nanoparticles after 1/10 dilution in 0.2% PVP and 0.25 mM SDS in water
Experimental: In order to prepare nanoparticles a stock solution of Compound A of about 100 mM in ethanol was used. Included was also 25% (w/w) Miglyol, calculated on the amount of the substance. The solutions were diluted 1/10 with the stabilizer solution, consisting of 0.2% (w/w) PVP and 0.25 mM SDS in water. The mixing, which is considered as a critical parameter during the nanoparticle preparation, was rapid and instant. The drug solution was rapidly injected into the stabilizer solution during ultrasonication. After the 1/10 dilution in the aqeous solution, nanoparticles of about 150 nm were achieved. After 6 hours at room temperature, the particle sizes were unchanged.
To prepare nanoparticles a stock solution of Compound B of about 100 mM in ethanol was used. Included was also 25% (w/w) Miglyol, calculated on the amount of the substance. The solutions were diluted 1/10 with a stabilizer solution consisting of 0.2% (w/w) PVP and 0.25 mM SDS in water. The critical mixing stage was rapid and instant:—The drug solution was rapidly injected into the stabilizer solution during ultrasonication. After 1/10 dilution in the aqeous solution, nanoparticles of about 110 nm were obtained. After 6 hours at room temperature, the particle sizes were unchanged.

[3] = Storage stability of liquid formulations; assay type: physicochemical
Experimental: The pH of this solution was set to 3.8 by addition of HCl. The solubility of Compound A is at least 1000 times higher in this vehicle compared to water alone. Formulations of Compound A in this vehicle are stable for at least 3 months at <−15° C.

[4] = Solubility in vehicle compared to water alone; assay type: physicochemical
[5] = Plasma concentration 1 hour after oral or subcutaneous administration of solution to rats
Experimental: A formulation was prepared by dissolving Compound C in saline/ethanol/solutol 90/5/5 (w/w) % followed by gently stirring.

CCS(=O)(=O)O.CO/N=C(\N)c1ccc(CNC(=O)C2CCN2C(=O)C(O)c2cc(Cl)cc(OC(F)F)c2)cc1 (centres unmarked) [Compound A as esylate salt]
solubility thermodynamic ([1]; pH 2.7, aqueous buffer, thermodynamic from solid, 112 mg in 3 mL sodium phosphate buffer pH 3.1 I = 0.1, stirred over night, at a pH of 2.7): 33 mg/mL
solubility thermodynamic ([1]; pH 2.7, thermodynamic from solid, excess salt in 3 mL water, stirred over night, at a pH of 2.7): 14 mg/mL
solubility thermodynamic ([1]; pH 6.5, aqueous buffer, thermodynamic from solid, 20 mg in 3 mL sodium phosphate buffer pH 6.9 I = 0.1, stirred over night, at a pH of 6.5): 1.6 mg/mL

CO/N=C(\N)c1ccc(CNC(=O)[C@@H]2CCN2C(=O)[C@H](O)c2cc(Cl)cc(OC(F)F)c2)cc1 [Compound A, Ph(3-Cl)(5-OCHF2)—(R)CH(OH)C(O)—(S)Aze-Pab(OMe)]
pH of this solution (pH of the formulation; Example 6: 51 μmol/mL in PEG 400/ethanol/water 20/10/70, water with 50 μmol/mL tartaric acid): 3.6
nanoparticle size [2]: about 150 nm
particle sizes after 6 hours at room temperature [2]: unchanged
time the formulation is stable ([3]; Example 10: acidified PEG 400/ethanol/water 40/5/55, pH 3.8, at <−15° C.): at least 3 months
time the substance is stable in this formulation ([3]; Example 28: 130 μmol/mL in ethanol): more than 1 week
time the formulation is stable ([3]; Example 57: PEG 400/ethanol/water 25/10/65, in a freezer): at least 2 months
time the formulation is stable ([3]; Example 60: ethanol, citric acid and water, pH 3.2, in a freezer): at least 1 month
time the formulation is stable ([3]; Example 61: citric acid in physiological saline, pH 3.6, in a freezer): at least 3 months
time the formulation is stable ([3]; Example 62: PEG 400/ethanol/water 40/5/55 containing citric acid, pH 3.6, in a freezer): at least 1 month
time the formulation is stable ([3]; Example 67: citric acid in physiological saline, pH 3.6, in a freezer): at least 3 months
solubility in this vehicle compared to water alone ([4]; Example 4: PEG 400/ethanol/water 50/5/45 (w/w) %): at least 1000 times
solubility in this vehicle compared to water alone ([4]; Example 5: PEG 400/ethanol/water 20/10/70 (w/w) %): at least 100 times
solubility in this vehicle compared to water alone ([4]; Example 6: acidified PEG 400/ethanol/water 20/10/70, water with 50 μmol/mL tartaric acid, pH 3.6): at least 250 times
solubility in this vehicle compared to water alone ([4]; Example 7: PEG 400/ethanol/water 30/5/65 (w/w) %): at least 200 times
solubility in this vehicle compared to water alone ([4]; Example 8: acidified PEG 400/ethanol/water 30/5/65, tartaric acid, HCl to pH 3.6): at least 400 times
solubility in this vehicle compared to water alone ([4]; Example 9: PEG 400/ethanol/water 40/5/55 (w/w) %): at least 600 times
solubility in this vehicle compared to water alone ([4]; Example 10: acidified PEG 400/ethanol/water 40/5/55, tartaric acid, HCl to pH 3.8): at least 1000 times
solubility in this vehicle compared to water alone ([4]; Example 11: Hydroxypropyl-β-cyclodextrin/water 40/60 (w/w) %, pH set to 4.7 by HCl): at least 700 times
solubility in this vehicle compared to water alone ([4]; Example 12: Hydroxypropyl-β-cyclodextrin/water 28/72 (w/w) %): at least 400 times
solubility in this vehicle compared to water alone ([4]; Example 13: PEG 400/ethanol/solutol/water 50/5/5/40 (w/w) %): at least 80 times
solubility in this vehicle compared to water alone ([4]; Example 14: PEG 400/water 40/60 (w/w) %): at least 200 times
solubility in this vehicle compared to water alone ([4]; Example 15: PEG 400/water 35/65 (w/w) %, water with 50 μmol/mL tartaric acid): at least 250 times
solubility in this vehicle compared to water alone ([4]; Example 16: PEG 400/water 50/50 (w/w) %): at least 300 times
solubility in this vehicle compared to water alone ([4]; Example 17: PEG 400/water 67/33 (w/w) %): at least 400 times
solubility in this vehicle compared to water alone ([4]; Example 18: PEG 400/ethanol/water 45/1/54 (w/w) %): at least 450 times
solubility in this vehicle compared to water alone ([4]; Example 19: acidified PEG 400/ethanol/water 45/1/54, tartaric acid, HCl to pH 4.2): at least 800 times
solubility in this vehicle compared to water alone ([4]; Example 20: PEG 400/ethanol/water 45/2/53 (w/w) %): at least 500 times
solubility in this vehicle compared to water alone ([4]; Example 21: acidified PEG 400/ethanol/water 45/2/53, tartaric acid, HCl to pH 4.3): at least 800 times
solubility in this vehicle compared to water alone ([4]; Example 22: DMA/water 50/50 (w/w) %): at least 230 times
solubility in this vehicle compared to water alone ([4]; Example 23: DMA/water 25/75 (w/w) %): at least 150 times
solubility in this vehicle compared to water alone ([4]; Example 24: water with double equimolar HCl, pH adjusted to 3.6): at least 20 times
solubility in this vehicle compared to water alone ([4]; Example 25: water, HCl to pH 1, then NaOH to pH 3.0): at least 40 times
solubility in this vehicle compared to water alone ([4]; Example 26: DMA/miglyol (miglyol 0.25 g/g Compound A)): at least 4000 times
solubility in this vehicle compared to water alone ([4]; Example 27: Ethanol/Miglyol (miglyol 0.25 g/g Compound A)): at least 4000 times
solubility in this vehicle compared to water alone ([4]; Example 57: PEG 400/ethanol/water 25/10/65 (w/w) %): at least 100 times
solubility in this vehicle compared to water alone ([4]; Example 58: PEG 400/ethanol/water 50/10/40 (w/w) %): at least 2000 times
solubility in this vehicle compared to water alone ([4]; Example 59: PEG 400/ethanol/water 40/10/50 (w/w) %): at least 1500 times
solubility in this vehicle compared to water alone ([4]; Example 60: ethanol, citric acid and water, pH set to 3.2): at least 100 times

CO/N=C(\N)c1cc(F)c(CNC(=O)[C@@H]2CCN2C(=O)[C@H](O)c2cc(Cl)cc(OC(F)F)c2)c(F)c1 [Compound B, Ph(3-Cl)(5-OCHF2)—(R)CH(OH)C(O)—(S)Aze-Pab(2,6-diF)(OMe)]
nanoparticle size [2]: about 110 nm
particle sizes after 6 hours at room temperature [2]: unchanged
time the formulation is stable ([3]; Example 69: 0.5 mg/mL in PEG 400/ethanol/water 50/5/45, at <−15° C.): at least 1 month

CO/N=C(\N)c1ccc(CNC(=O)[C@@H]2CCN2C(=O)[C@H](O)c2cc(Cl)cc(OCCF)c2)cc1 [Compound C, Ph(3-Cl)(5-OCH2CH2F)—(R)CH(OH)C(O)—(S)Aze-Pab(OMe)]
time the formulation is stable ([3]; Example 73: 0.5 mg/mL in PEG 400/ethanol/water 50/5/45, at room temperature and below): at least 1 month
time the formulation is stable ([3]; Example 74: Hydroxypropyl-β-cyclodextrin/water 20/80, at <8° C.): at least 2 weeks

N=C(N)c1ccc(CNC(=O)[C@@H]2CCN2C(=O)[C@H](O)c2cc(Cl)cc(OC(F)F)c2)cc1 [Compound D, Ph(3-Cl)(5-OCHF2)—(R)CH(OH)C(O)—(S)Aze-Pab]
plasma concentration after 1 hour ([5]; oral, dosed: Compound A 4 μmol/mL in saline/ethanol/solutol 90/5/5): 560 nM
plasma concentration after 1 hour ([5]; subcutaneous, dosed: Compound A 4 μmol/mL in saline/ethanol/solutol 90/5/5): 240 nM
plasma concentration after 1 hour ([5]; subcutaneous, dosed: Compound D trifluoroacetate salt 4 μmol/mL in saline/ethanol): 550 nM
time the formulation is stable ([3]; Example 64: acidified PEG 400/ethanol/water 40/5/55, pH 3.6, at <−15° C.): at least 2 months

N=C(N)c1cc(F)c(CNC(=O)[C@@H]2CCN2C(=O)[C@H](O)c2cc(Cl)cc(OC(F)F)c2)c(F)c1 [Compound E, Ph(3-Cl)(5-OCHF2)—(R)CH(OH)C(O)—(S)Aze-Pab(2,6-diF)]
plasma concentration after 1 hour ([5]; oral, dosed: Compound B 4 μmol/mL in saline/ethanol/solutol 90/5/5): 650 nM
plasma concentration after 1 hour ([5]; subcutaneous, dosed: Compound B 4 μmol/mL in saline/ethanol/solutol 90/5/5): 300 nM
plasma concentration after 1 hour ([5]; subcutaneous, dosed: Compound E acetate salt 4 μmol/mL in saline/ethanol): 750 nM
pH obtained in this formulation (pH of the formulation; Example 72: dissolved in 9 mg/ml NaCl): 8-9

N=C(N)c1ccc(CNC(=O)[C@@H]2CCN2C(=O)[C@H](O)c2cc(Cl)cc(OCCF)c2)cc1 [Compound F, Ph(3-Cl)(5-OCH2CH2F)—(R)CH(OH)C(O)—(S)Aze-Pab]
plasma concentration after 1 hour ([5]; oral, dosed: Compound C 4 μmol/mL in saline/ethanol/solutol 90/5/5): 500 nM
plasma concentration after 1 hour ([5]; subcutaneous, dosed: Compound C 4 μmol/mL in saline/ethanol/solutol 90/5/5): 500 nM
plasma concentration after 1 hour ([5]; subcutaneous, dosed: Compound F trifluoroacetate salt 4 μmol/mL in saline/ethanol): 920 nM
pH obtained in this formulation (pH of the formulation; Example 75: dissolved in 9 mg/ml NaCl): 3-4
time the formulation is stable ([3]; Example 75: 9 mg/ml NaCl, at room temperature and below): at least 2 weeks
